In US20220023303A1 (DSM IP Assets B.V., priority 2018, published 2022):

How the values were obtained:
Format in all cases: in vivo, humans
[1] = system: U.S. adults; assay: NHANES 2005-2010 observational analysis: linear regression of self-reported bowel motion frequency on riboflavin intake
Protocol: Data were obtained from NHANES, a representative survey that measures the health and nutritional status of the U.S. non-institutionalized population. Research protocols were reviewed and approved by the National Center for Health Statistics Research Ethics Review Board (protocol #2005-2006). Ethical review of the protocols used in NHANES protocols is conducted annually, with ongoing changes submitted through an amendment process. All participants gave written consent before participation. Information that could potentially identify participants is removed before data is made publicly available.
For this analysis, data from adults aged 20 years and over in the survey years 2005-2010 were selected. Participants were selected using a complex, multi-stage probability sampling design to produce a representative sample. Demographic information (gender, age, ethnicity, education, poverty-income ratio) was provided by self-report during an interview conducted by a trained interviewer in the participant's home. Questions relating to Bowel Health were administered to adults aged 20 years and older in the mobile examination center by means of a computer-assisted personal interviewing system. Dietary assessment was conducted by means of two 24-hour dietary recalls, the first conducted in-person at the mobile examination center, and the second conducted by telephone 3 to 10 days after the dietary interview but not on the same day of the week. Pregnancy status in women aged 20 to 44 years was determined by self-report; negative responses were confirmed with a urinary pregnancy test. […] For the survey cycles 2007-2010, the total supplemental intake based on the 30 days questionnaire was also used, based on the totals provided in the dataset. Subjects who self-reported inflammatory bowel disease were excluded.
(§1) The Bowel Health questionnaire in survey cycles 2005-2006 and 2007-2008 consisted of six questions: four relate to the assessment of the Fecal Incontinence Severity Index (Rockwood, et al 1999 Dis Colon Rectum 42, 1525-1532) one question requests participants' self-reported weekly bowel motion frequency, and one question was about normal stool type on the Bristol Stool Scale (Lewis et al 1997 Scand J Gastroenterol 32: 920-924). A Fecal Incontinence Intensity Score (FISI) was calculated and binned into four categories using the RANK procedure to obtain approximately equal categories. In the 2009-2010 survey cycle, questions about bowel evacuation urgency, constipation and diarrhea incidence over the previous year, and laxative use over the past 30 days, were added.
Statistical analyses were performed using SAS version 9.3 (SAS Institute Inc., Cary, N.C., USA). Statistical significance was set at 0.05.
Gender, ethnicity, education, age (continuous), Poverty-Income Ratio (PIR, continuous) were included in the socio-demographic chunk, and vigorous physical activity over the past 30 days (Y/N), dietary supplement use (Y/N), fiber and moisture intake (continuous), self-report of thyroid problems (Y/N) and use of prescription medication (1 or less vs 2 or more) were included in the diet and health chunk.
The final linear regression using significant predictors was performed using […] to generate the correct variance estimation that takes the complex survey design into account.

[2] = system: U.S. adults; assay: NHANES: self-reported common stool type (Bristol Stool Scale) by quartiles of riboflavin intake; conditions: as riboflavin intake increases (quartiles), FIG. 1
Protocol: (§2) For this analysis, data from adults aged 20 years and over in the survey years 2005-2010 were selected. Participants were selected using a complex, multi-stage probability sampling design to produce a representative sample. Demographic information (gender, age, ethnicity, education, poverty-income ratio) was provided by self-report during an interview conducted by a trained interviewer in the participant's home. Questions relating to Bowel Health were administered to adults aged 20 years and older in the mobile examination center by means of a computer-assisted personal interviewing system. […] Pregnancy status in women aged 20 to 44 years was determined by self-report; negative responses were confirmed with a urinary pregnancy test. […]
as §1, with “In the 2009-2010 survey cycle, questions about bowel evacuation urgency, constipation and diarrhea incidence over the previous year, and laxative use over the past 30 days, were added.” left out

[3] = system: U.S. adults; assay: NHANES: normalcy of bowel motion frequency (3-21 bowel motions per week) by riboflavin intake quartiles; conditions: as riboflavin intake increases, food and total riboflavin, FIG. 2
Protocol: as §2
as §1, with “In the 2009-2010 survey cycle, questions about bowel evacuation urgency, constipation and diarrhea incidence over the previous year, and laxative use over the past 30 days, were added.” left out

[4] = system: U.S. adults; assay: NHANES: self-reported urgency to empty the bowels by total riboflavin intake; conditions: highest two quartiles of riboflavin intake, FIG. 4
Protocol: as §2
as §1, with “In the 2009-2010 survey cycle, questions about bowel evacuation urgency, constipation and diarrhea incidence over the previous year, and laxative use over the past 30 days, were added.” left out

[5] = Adjusted model (demographics): gender, age, education, Poverty-Income Ratio, ethnicity
[6] = Adjusted model (diet/health): prescription medications, thyroid problem, fiber and moisture intake
[7] = Adjusted model (full): all variables

In the case of `Cc1cc2nc3c(=O)[nH]c(=O)nc-3n(C[C@H](O)[C@H](O)[C@H](O)CO)c2cc1C` [riboflavin], the “Beta-coefficient, bowel motion frequency, DS riboflavin intake” value (“Beta-coefficient … DS riboflavin intake” for short) [1, 5] is reported as 0.0108, the “Beta-coefficient, bowel motion frequency, Food riboflavin intake” value (from here on “Beta-coefficient … Food riboflavin intake”) [1, 5] is reported as 0.253 and the “Beta-coefficient, bowel motion frequency, Total riboflavin intake” value (“Beta-coefficient … Total riboflavin intake” below) [1, 5] is reported as 0.0130. For the same compound, the “Beta-coefficient … DS riboflavin intake” value [1, 6] was 0.00807, the “Beta-coefficient … Food riboflavin intake” value [1, 6] was 0.0465 and the “Beta-coefficient … Total riboflavin intake” value [1, 6] was 0.00684. The “Beta-coefficient … DS riboflavin intake” value [1, 7] was 0.00895, the “Beta-coefficient … Food riboflavin intake” value [1, 7] was 0.0191 and the “Beta-coefficient … Total riboflavin intake” value [1, 7] was 0.00974. For the same compound, the “Beta-coefficient … Food riboflavin intake” value ([1]; Crude model) was 0.355, the “Beta-coefficient … Total riboflavin intake” value ([1]; Crude model) was 0.0113 and the “Beta-coefficient … DS riboflavin intake” value ([1]; Crude model, dietary supplements) was 0.0101. The “Riboflavin intake at which effect on bowel health parameters was seen” value ([1]; above the median intake) was over 2.1 mg/day, the “Relationship between food riboflavin intake and bowel motion frequency” value ([1]; after adjusting for socio-demographic, diet and lifestyle co-factors) was “not significant” and the “Relationship between riboflavin intake and bowel motion frequency” value ([1]; crude model, intakes from food, dietary supplements and in total) was “significant, positive relationship”. For the same compound, the “Relationship between total riboflavin intake and bowel motion frequency, stratified by fiber intake” value ([1]; dietary fiber intake low, less than the median) was “no significant relationship”, the “Change in bowel motion frequency with riboflavin” value ([1]; fibre intakes in the upper three quartiles (above 9 g/day)) was “Increases” and the “Relationship between riboflavin intake from dietary supplements and in total, and bowel motion frequency” value ([1]; fully adjusted model) was “significant, positive relationship”. The “Riboflavin intake at which effect on bowel health parameters was especially seen” value ([1]; highest quartile of riboflavin intake) was over 3.1 mg/day, the “Relationship between total riboflavin intake and bowel motion frequency, stratified by fiber intake” value ([1]; top two quartiles of dietary fiber intake) was “only significant” and the “Change in stool type 4 (normal defecation)” value [2] was “increase”. For the same compound, the “Change in stool types 2 (slow transit time) and 5 (soft-fluid stool)” value [2] was “reduction”, the “Proportion of the population with normal bowel motion patterns” value [3] was “increases” and the “Number of respondents reporting bowel motion urgency occurs "rarely"” value [4] was “significant increase”.
